Marks after values point to notes of the source that are not given here.
Tested on: rats made hyperlipidaemic by diet
Assay: Effects on serum lipids in vivo in rats made hyperlipidaemic by diet
Set-up: species or system Male Sprague-Dawley rats
Conditions: compound fed at 0.1% of the powdered diet (approximately 100 mg/kg/day), 7 days, (-) lower, (+) higher than control; for Percentage difference from Control Values in High Density lipoprotein (HDL) cholesterol: HDL fraction by heparin-manganous chloride precipitation, four pooled samples per group; for Percentage difference from Control Values in Total Serum Cholesterol / Percentage difference from Control Values in Total Serum Triglyceride: semi-synthetic diet rich in sucrose and cholesterol
Procedure: The compounds of the Examples above were tested for their effects on serum lipids in vivo using rats made hyperlipidaemic by diet*.
Male Sprague-Dawley rats, 80-100 g , were randomised into groups of 8 after 5 - 7 days of feeding on the diet. The compounds were fed to the rats at a concentration of * 0.1% of the powdered diet (ie approximately 100 mg/kg/ day), unless otherwise stated. The control groups were fed only the diet. At the end of the experiment, ie after 7 days, the rats were killed and their individual total serum cholesterol and triglyceride measured in mg/100 ml using a Technicon Autoanalyser. The high density lipoprotein (HDL)-cholesterol fraction, which was obtained from the serum by precipitation with heparin- manganous chloride, was measured on four 'pooled' samples from each group.
^* A semi-synthetic diet rich in sucrose and cholesterol.

Row | Structure (SMILES) | Percentage difference from Control Values in High Density lipoprotein (HDL) cholesterol | Percentage difference from Control Values in Total Serum Cholesterol | Percentage difference from Control Values in Total Serum Triglyceride
1 | O=C(O)C(Cc1ccc(Cl)cc1)NCc1ccco1 (racemic) [Example 2, N-(2-Furyl)methyl-DL-(4-chlorophenyl)-alanine] | +84* % | +61* % | -47* %
2 | O=C(O)[C@H](Cc1ccccc1)NCc1ccc2ccccc2c1 [Example 5, N-(2-Naphthyl)methyl-L-phenylalanine] | +30* % | +17* % | -57* %
3 | O=C(O)[C@H](Cc1ccccc1)NCc1ccco1 [Example 6, N-(2-Furyl)methyl-L-phenylalanine] | +26* % | – | +39%
4 | O=C(O)[C@H](Cc1ccccc1)NCc1cccc2ccccc12 [Example 3, N-(1-Naphthyl)methyl-L-phenylalanine] | +41* % | +62* % | -63* %
5 | O=C(O)C(Cc1ccc(Cl)cc1)NCc1ccc(Cl)s1 (racemic) [Example 1, N-[2-(5-chloro)thienyl]methyl-DL-(4-chlorophenyl) alanine] | +31* % | +16% | -42* %
6 | O=C(O)C(Cc1ccc(Cl)cc1)NCc1ccccn1 (racemic) [Example 4, N-(2-pyridyl)methyl-DL-(4-chlorophenyl) alanine] | +44* % | +78* % | -30* %

Reference: patent publication EP0067641A2, “Amino acids” (BEECHAM GROUP PLC, priority 1981, dated 1982)
